Target: bacterial tyrosinase (indigenously isolated from Bacillus subtilis NCTC 10400)
Test: Tyrosinase inhibition assay (dopachrome formation, OD 475 nm)
Type: biochemical
Settings: L-tyrosine substrate, 25 °C, triplicates, mean ± SD
Procedure: The target derivatives were evaluated against tyrosinase enzyme (indigenously isolated from Bacillus subtilis NCTC 10400) inhibition. […] Structure-activity relationship (SAR) studies indicate that overall substituent-related tyrosinase activity decreases in the following way: 2-flouro > 2-chloro > 3,4-dichloro > 4-fluoro > 3,4-dimethyl > 2-methoxy > phenyl > 2,4-dimethyl > 2,5-dimethoxy > diethyl.
The bacterial tyrosinase enzyme isolation and preparation were fully described in our previously published paper and in other reported literature. A novel synthesized series of oxadiazole-based furan molecules were screened for anti-tyrosinase activity. Tyrosinase inhibition was investigated by modifying the reported methods of Kim. Briefly, phosphate buffer (0.05 M), L-tyrosine (765 µL; 2 mM) and tested compounds (35 µL) were incubated at ambient temperature for 10 min then bacterial tyrosinase (200 µL; about 48 U/mL) was added and the whole assay solution was allowed to stand at 25 °C for 2 min. The formation of dopachrome was monitored after incubation (2 min) by measuring the increase in optical density (OD) at λmax 475 nm. The stock solution for the entire synthesized series of oxadiazole-based furan moieties (1 mM) was prepared in DMSO (dimethyl sulfoxide). Five different dilutions of each oxadiazole-based furan moiety was prepared. Ascorbic acid (1 mM) was utilized for the standard tyrosinase inhibitor, and the values were expressed as IC50, the concentration of tested samples which caused the 50% inhibition. The percentage (%) of bacterial tyrosinase inhibitory activity was determine by utilizing the formula:(2) % Inhibition=A−BA×100
Here, A represents control enzyme, i.e., without inhibitor, while B represented the test sample, i.e., inhibitor.
The Prism software was used to analyze statistical data, while the results were measured in triplicates and depicted as mean ± SD.

Row | Structure (SMILES) | IC50 [µM]
1 | O=C1O[C@H]([C@@H](O)CO)C(O)=C1O [Ascorbic acid, reference compound] | 11.5 ± 1
2 | O=C(CSc1nnc(-c2cc3cc(Br)ccc3o2)o1)Nc1ccccc1F [Compound 5a, 2-((5-(5-Bromobenzofuran-2-yl)-1,3,4-oxadiazol-2-yl)thio)-N-(2-fluorophenyl)acetamide] | 11 ± 0.25
3 | O=C(CSc1nnc(-c2cc3cc(Br)ccc3o2)o1)Nc1ccccc1Cl [Compound 5b, 2-((5-(5-Bromobenzofuran-2-yl)-1,3,4-oxadiazol-2-yl)thio)-N-(2-chlorophenyl)acetamide] | 12.4
4 | O=C(CSc1nnc(-c2cc3cc(Br)ccc3o2)o1)Nc1ccc(Cl)c(Cl)c1 [Compound 5c, 2-((5-(5-Bromobenzofuran-2-yl)-1,3,4-oxadiazol-2-yl)thio)-N-(3,4-dichlorophenyl)acetamide] | 12.7
5 | O=C(CSc1nnc(-c2cc3cc(Br)ccc3o2)o1)Nc1ccc(F)cc1 [Compound 5d, 2-((5-(5-Bromobenzofuran-2-yl)-1,3,4-oxadiazol-2-yl)thio)-N-(4-fluorophenyl)acetamide] | 15.5
6 | Cc1ccc(NC(=O)CSc2nnc(-c3cc4cc(Br)ccc4o3)o2)cc1C [Compound 5e, 2-((5-(5-Bromobenzofuran-2-yl)-1,3,4-oxadiazol-2-yl)thio)-N-(3,4-dimethylphenyl)acetamide] | 25 ± 0.75
7 | COc1ccccc1NC(=O)CSc1nnc(-c2cc3cc(Br)ccc3o2)o1 [Compound 5f, 2-((5-(5-Bromobenzofuran-2-yl)-1,3,4-oxadiazol-2-yl)thio)-N-(2-methoxyphenyl)acetamide] | 27 ± 1
8 | O=C(CSc1nnc(-c2cc3cc(Br)ccc3o2)o1)Nc1ccccc1 [Compound 5g, 2-((5-(5-Bromobenzofuran-2-yl)-1,3,4-oxadiazol-2-yl)thio)-N-phenylacetamide] | 30 ± 1.5
9 | Cc1ccc(NC(=O)CSc2nnc(-c3cc4cc(Br)ccc4o3)o2)c(C)c1 [Compound 5h, 2-((5-(5-Bromobenzofuran-2-yl)-1,3,4-oxadiazol-2-yl)thio)-N-(2,4-dimethylphenyl)acetamide] | 36 ± 0.25
10 | COc1ccc(OC)c(NC(=O)CSc2nnc(-c3cc4cc(Br)ccc4o3)o2)c1 [Compound 5i, 2-((5-(5-Bromobenzofuran-2-yl)-1,3,4-oxadiazol-2-yl)thio)-N-(2,5-dimethoxyphenyl)acetamide] | 48 ± 0.96
11 | CCN(CC)C(=O)CSc1nnc(-c2cc3ccccc3o2)o1 [Compound 5j] | 49.5 ± 0.92

— PMC9500974, “Ultrasonic-Assisted Synthesis of Benzofuran Appended Oxadiazole Molecules as Tyrosinase Inhibitors: Mechanistic Approach through Enzyme Inhibition, Molecular Docking, Chemoinformatics, ADMET and Drug-Likeness Studies” (International Journal of Molecular Sciences, 2022)
